Source: PMC6999911, “New 2-Ethylthio-4-methylaminoquinazoline derivatives inhibiting two subunits of cytochrome bc1 in Mycobacterium tuberculosis” (PLoS Pathogens, 2020)
In brackets after ≈: the same amount, converted by molar mass. Where two headings read alike, the source gives them in different places.

Legend:
[1] = tested on: THP-1 macrophages infected with M.tb H37Rv; assay: Ex vivo drug susceptibility in infected THP-1 macrophages; format: cell-based; details: Mycobacterium tuberculosis; THP-1 macrophages infected with H37Rv, 48h
[2] = tested on: HepG2 cells; format: cell-based, Human; details: for Selective index TD50/MIC: HepG2 TD50 / H37Rv MIC; for HepG2 TD99: Toxic dose that inhibits 99% of cell growth, 3 days
Experimental: Human HepG2 cells (ATCC HB-8065, 4000 cells/well) were incubated for 3 days with two-fold serially diluted compounds at 37°C, under an atmosphere of 5% CO2. Cell viability was determined by the addition of resazurin (0.0025% w/v) for 5 h at 37°C and the fluorescence intensity measured as in REMA.

[3] = tested on: non-replicating, streptomycin-starved strain 18b; assay: Activity against non-replicating strain 18b (model for latent TB); format: cell-based, Mycobacterium tuberculosis; details: streptomycin-starved 18b
[4] = tested on: Bacillus subtilis; assay: MIC, different organisms; format: cell-based
[5] = tested on: Candida albicans; assay: MIC, different organisms; format: cell-based
[6] = tested on: Corynebacterium diphtheriae; assay: MIC, different organisms; format: cell-based
[7] = tested on: Corynebacterium glutamicum ATCC13032; assay: MIC, different organisms; format: cell-based
[8] = tested on: Enterococcus faecalis; assay: MIC, different organisms; format: cell-based
[9] = tested on: Escherichia coli PQ37; assay: MIC, different organisms; format: cell-based
[10] = tested on: Listeria monocytogenes; assay: MIC, different organisms; format: cell-based
[11] = tested on: Micrococcus luteus; assay: MIC, different organisms; format: cell-based
[12] = tested on: Mycobacteroides abscessus subsp. abscessus 2005–0524; assay: MIC, different organisms; format: cell-based
[13] = tested on: Mycobacterium avium ATCC15769; assay: MIC, different organisms; format: cell-based
[14] = tested on: Mycobacteroides abscessus subsp. bolletii 1999–0888; assay: MIC, different organisms; format: cell-based
[15] = tested on: Mycobacterium bovis BCG Pasteur; assay: microbe, parasite or virus in culture; format: cell-based; details: Mycobacterium tuberculosis variant bovis BCG
[16] = tested on: Mycobacterium canettii STB-L; assay: MIC, different organisms; format: cell-based; details: Mycobacterium canetti
[17] = tested on: Mycobacterium marinum Strain M; assay: MIC, different organisms; format: cell-based
[18] = tested on: Mycobacteroides abscessus subsp. massiliense 2005–0484; assay: MIC, different organisms; format: cell-based
[19] = tested on: Mycobacterium smegmatis mc^2155; assay: MIC, different organisms; format: cell-based; details: Mycolicibacterium smegmatis
[20] = tested on: Mycobacterium tuberculosis Erdman; assay: MIC, different organisms; format: cell-based
[21] = tested on: Mycobacterium tuberculosis HN878; assay: MIC, different organisms; format: cell-based
[22] = tested on: Mycobacterium tuberculosis MDR 59744; assay: MIC, different organisms; format: cell-based
[23] = tested on: Mycolicibacterium vaccae ATCC 15483; assay: MIC, different organisms; format: cell-based; details: ATCC15483
[24] = tested on: Pseudomonas aeruginosa; assay: MIC, different organisms; format: cell-based
[25] = tested on: Pseudomonas putida; assay: MIC, different organisms; format: cell-based
[26] = tested on: Salmonella typhimurium; assay: MIC, different organisms; format: cell-based; details: Salmonella enterica
[27] = tested on: Staphylococcus aureus; assay: MIC, different organisms; format: cell-based
[28] = microsomes
[29] = in vitro; details: human, microsomes
[30] = tested on: H37Rv; format: cell-based, Mycobacterium tuberculosis; details: 2.5X MIC, 24 h, compared to untreated controls
[31] = tested on: M. tb H37Rv; format: cell-based; details: 11626252 8.4 μM (100x the MIC50)
[32] = tested on: M. tb H37Rv ΔcydAB; format: cell-based; details: ΔcydAB strain of M. tb H37Rv, even after CCCP
[33] = tested on: M. tb H37Rv; format: cell-based; details: 1X - 32X MIC, 7 days
[34] = tested on: M. tb H37Rv ΔcydAB; format: cell-based; details: 8X MIC, 32X MIC, 7 days, d.l. = limit of detection
[35] = tested on: cydB and lipU in M. tb H37Rv; format: cell-based, Mycobacterium tuberculosis; details: M. tb H37Rv exposed to 11626252, 4 h
[36] = tested on: M. tb H37Rv South Africa; assay: Acute model of murine TB; format: in vivo, Mycobacterium tuberculosis; details: Balb/c mice
[37] = Mycobacterium canettii STB-L, read-out: MIC

In the case of `CNc1nc(SCc2ccccc2)nc2cccc(F)c12`, the melting point is reported as 101 to 104 °C.
Work on `CCSc1nc(NC)c2cc(C(F)(F)F)ccc2n1` yielded a melting point of 161 to 163 °C.
For `CCSc1nc(NC)c2ccccc2n1` [Compound 11626141], the IC50 [1] was 0.013 µg/mL (≈ 0.0593 µM), the “Selective index TD50/MIC” value [2] was 575 and the “HepG2 TD99” value [2] was 53 µg/mL. The “Activity against non-replicating strain 18b” value [3] was “no activity”, the MIC [4] was at least 100 µg/mL and the MIC [5] was at least 100 µg/mL. The MIC [6] was at least 100 µg/mL, the MIC [7] was 66.8 µg/mL (≈ 305 µM) and the MIC [8] was at least 100 µg/mL. The MIC [9] was at least 100 µg/mL, the MIC [10] was at least 100 µg/mL and the MIC [11] was at least 100 µg/mL. For the same molecule, the MIC [12] was 62.4 µg/mL (≈ 285 µM), the MIC [13] was at least 100 µg/mL and the MIC [14] was at least 100 µg/mL. It also gave an MIC [15] of 0.9 µg/mL (≈ 4.1 µM), an MIC [16, 37] of 0.05 µg/mL (≈ 0.228 µM) and an MIC [17] of 0.1 µg/mL (≈ 0.456 µM). For the same molecule, the MIC [18] was at least 100 µg/mL, the MIC [19] was 38.4 µg/mL (≈ 175 µM) and the MIC [20] was 0.01 µg/mL (≈ 0.0456 µM). The MIC [21] was 0.05 µg/mL (≈ 0.228 µM), the MIC ([22]; MDR59744, read-out: MIC) was 0.02 µg/mL (≈ 0.0912 µM) and the MIC [23] was at least 100 µg/mL. It also gave an MIC [24] of at least 100 µg/mL, an MIC [25] of at least 100 µg/mL and an MIC [26] of at least 100 µg/mL. For the same molecule, the MIC [27] was at least 100 µg/mL, the “Human microsome stability, clearance class” value (shortened to “Human microsome stability”) [28] was “high” and the microsomal CLint [29] was 120 µL/min/mg.
With `CCNc1nc(SCC)nc2ccccc12` [Compound 11626142] the IC50 [1] was 0.012 µg/mL (≈ 0.0514 µM), the “Selective index TD50/MIC” value [2] was 100 and the “HepG2 TD99” value [2] was 26 µg/mL. For the same molecule, the “Activity against non-replicating strain 18b” value [3] was “no activity”, the MIC [4] was at least 100 µg/mL and the MIC [5] was 44.3 µg/mL (≈ 190 µM). The MIC [6] was 44.3 µg/mL (≈ 190 µM), the MIC [7] was 75 µg/mL (≈ 321 µM) and the MIC [8] was at least 100 µg/mL. For the same molecule, the MIC [9] was at least 100 µg/mL, the MIC [10] was at least 100 µg/mL and the MIC [11] was at least 100 µg/mL. For the same molecule, the MIC [12] was 100 µg/mL (≈ 429 µM), the MIC [13] was 49.1 µg/mL (≈ 210 µM) and the MIC [14] was at least 100 µg/mL. The MIC [15] was 0.8 µg/mL (≈ 3.43 µM), the MIC [16, 37] was 0.2 µg/mL (≈ 0.857 µM) and the MIC [17] was 0.8 µg/mL (≈ 3.43 µM). It also gave an MIC [18] of at least 100 µg/mL, an MIC [19] of 75.6 µg/mL (≈ 324 µM) and an MIC [20] of 0.1 µg/mL (≈ 0.429 µM). The MIC [21] was 0.2 µg/mL (≈ 0.857 µM), the MIC ([22]; MDR59744, read-out: MIC) was 0.09 µg/mL (≈ 0.386 µM) and the MIC [23] was at least 100 µg/mL. The MIC [24] was at least 100 µg/mL, the MIC [25] was at least 100 µg/mL and the MIC [26] was at least 100 µg/mL. The MIC [27] was at least 100 µg/mL, the “Human microsome stability” value [28] was “high” and the microsomal CLint [29] was 122 µL/min/mg.
For `CCSc1nc(NC)c2cccc(F)c2n1` [Compound 11626252], the IC50 [1] was 0.011 µg/mL (≈ 0.0464 µM), the “Selective index TD50/MIC” value [2] was 1950 and the “HepG2 TD99” value [2] was over 100 µg/mL. The “Activity against non-replicating strain 18b” value [3] was “no activity”, the MIC [4] was at least 100 µg/mL and the MIC [5] was at least 100 µg/mL. For the same molecule, the MIC [6] was at least 100 µg/mL, the MIC [7] was 47.2 µg/mL (≈ 199 µM) and the MIC [8] was at least 100 µg/mL. It also gave an MIC [9] of at least 100 µg/mL, an MIC [10] of at least 100 µg/mL and an MIC [11] of at least 100 µg/mL. It also gave an MIC [12] of at least 100 µg/mL, an MIC [13] of at least 100 µg/mL and an MIC [14] of at least 100 µg/mL. It also gave an MIC [15] of 1.6 µg/mL (≈ 6.74 µM), an MIC [16, 37] of 0.03 µg/mL (≈ 0.126 µM) and an MIC [17] of 0.007 µg/mL (≈ 0.0295 µM). For the same molecule, the MIC [18] was at least 100 µg/mL, the MIC [19] was 32.3 µg/mL (≈ 136 µM) and the MIC [20] was 0.02 µg/mL (≈ 0.0843 µM). It also gave an MIC [21] of 0.03 µg/mL (≈ 0.126 µM), an MIC ([22]; MDR59744, read-out: MIC) of 0.02 µg/mL (≈ 0.0843 µM) and an MIC [23] of at least 100 µg/mL. For the same molecule, the MIC [24] was at least 100 µg/mL, the MIC [25] was at least 100 µg/mL and the MIC [26] was at least 100 µg/mL. For the same molecule, the MIC [27] was at least 100 µg/mL, the “remaining relative ATP level” value [30] was 19.81±8.125% and the “oxygen consumption rate (OCR) after exposure” value [31] was “increased”. The “oxygen consumption rate (OCR) after exposure” value [32] was “rapid and sustained decrease”, the “static or cidal activity by CFU enumeration” value [33] was “bacteriostatic” and the “log10 CFU/mL” value [34] was “< d.l”. For the same molecule, the “expression of cydB and lipU (qRT-PCR)” value [35] was “Overexpression”, the “Human microsome stability” value [28] was “medium” and the microsomal CLint [29] was 18.1 µL/min/mg.
With `CCSc1nc(NC)c2ccc(F)c(F)c2n1` [Compound 11726148] the “Selective index TD50/MIC” value [2] was 780, the “HepG2 TD99” value [2] was over 100 µg/mL and the “decrease of bacterial burden in the lungs” value ([36]; 150 mg/kg gavage daily for 10 days, vs untreated TPGS control, p-value 0.004) was 0.51 log10 CFU/organ. The melting point was 186 to 189 °C, the “Human microsome stability” value [28] was “medium” and the microsomal CLint [29] was 28.7 µL/min/mg.
In the case of `NNC(=O)c1ccncc1` [INH, isoniazid, reference compound], the “log10 CFU per lung” value ([36]; INH 25mg/kg gavage, 10 days, d.l. = limit of detection) is reported as “< d.l”.
With `CO[C@H]1/C=C/O[C@@]2(C)Oc3c(C)c(O)c4c(O)c(c(/C=N/N5CCN(C)CC5)c(O)c4c3C2=O)NC(=O)/C(C)=C\C=C\[C@H](C)[C@H](O)[C@@H](C)[C@@H](O)[C@@H](C)[C@H](OC(C)=O)[C@@H]1C` [RIF, rifampicin, reference compound] the MIC [4] was 0.3 µg/mL (≈ 0.365 µM), the MIC [5] was 2.2 µg/mL (≈ 2.67 µM) and the MIC [6] was 0.5 µg/mL (≈ 0.608 µM). For the same molecule, the MIC [7] was 0.004 µg/mL (≈ 0.00486 µM), the MIC [8] was 3.9 µg/mL (≈ 4.74 µM) and the MIC [9] was 6.5 µg/mL (≈ 7.9 µM). It also gave an MIC [10] of 0.6 µg/mL (≈ 0.729 µM), an MIC [11] of 0.2 µg/mL (≈ 0.243 µM) and an MIC [12] of 18.1 µg/mL (≈ 22 µM). The MIC [13] was 27.3 µg/mL (≈ 33.2 µM), the MIC [14] was 24.8 µg/mL (≈ 30.1 µM) and the MIC [15] was 0.0008 µg/mL (≈ 0.000972 µM). It also gave an MIC [16] of 0.001 µg/mL (≈ 0.00122 µM), an MIC [17] of 0.2 µg/mL (≈ 0.243 µM) and an MIC [18] of 9.5 µg/mL (≈ 11.5 µM). The MIC [19] was 0.9 µg/mL (≈ 1.09 µM), the MIC [20] was 0.001 µg/mL (≈ 0.00122 µM) and the MIC [21] was 0.0006 µg/mL (≈ 0.000729 µM). For the same molecule, the MIC ([22]; MDR59744) was at least 10 µg/mL, the MIC [23] was 6.6 µg/mL (≈ 8.02 µM) and the MIC [24] was 0.2 µg/mL (≈ 0.243 µM). It also gave an MIC [25] of 3 µg/mL (≈ 3.65 µM), an MIC [26] of 0.8 µg/mL (≈ 0.972 µM) and an MIC [27] of 1.4 µg/mL (≈ 1.7 µM).
